# According to patent EP4512427A1, “ANTIBODY-DRUG CONJUGATES BASED ON MOLECULAR GLUE DEGRADERS AND USES THEREOF” (Mablink Bioscience, priority 2023, dated 2025):
# pIC50: −log10 of the molar value.
# Legend:
# [1] = in vitro; conditions: PAMPA, pH 7.4
# Method: Stock solutions of compounds of the invention were prepared in dimethyl sulfoxide (DMSO) to a final concentration of 10 mM. Each stock solution was diluted to 50 µM in pH 7.4 Prisma HT buffer (pION) in the presence of 10% MeOH (v/v). 200 µL were added to each well of the donor plate in quintuplicate. […] The acceptor filter plate was carefully placed on top of the donor plate to form a "sandwich." The sandwich was incubated at 25°C for 5 h, at 300 rpm. UV-vis spectra of the solutions in the blank, reference, acceptor, and donor plates were measured using a Tecan Infinite 200 PRO M Nano Plus microplate reader.
# [2] = target: T1, MDR1 (Homo sapiens, UniProt P08183); test: MDR1 efflux substrate assay in MDCK-MDR1; type: in vitro ADME; conditions: for Papp A→B at 60 min, 5 µM / Papp B→A at 60 min, 5 µM / efflux ratio at 60 min, 5 µM: dog; for Papp A→B at 60 min, 5 µM / Papp B→A at 60 min, 5 µM: MDCK-MDR1, 5µM, pH 7.4; for Papp A→B at 60 min, 5 µM: read-out: Papp A (donor) to B (acceptor); for Papp B→A at 60 min, 5 µM: read-out: Papp B (acceptor) to A (donor); for efflux ratio at 60 min, 5 µM: MDCK-MDR1, pH 7.4, read-out: Efflux ratio B/A; for MDR1 efflux potential: in words
# T1 construct: host or cells: MDCK-MDR1 (Preadyport)
# Method: (§1) MDR1 and BCRP efflux substrate assays were conducted in MDCK-MDR1 and MDCK-BCRP in vitro models (Preadyport™, Solvo Biotech) at Symeres (Nederland). Compound of the invention (donor well concentration of 5µM) were incubated in cell monolayer 24-transwell Preadyport system, using Preadyport recommended pH 7.4 assay buffer (donor and receiver wells). After 60 min of incubation (no shaking), samples are collected and suspended into triple volume of 66% cold acetonitrile. Samples are stored at -20°C until thawed, centrifuged and analyzed by LC-MS. Quinidine was used a positive control for the MDR1 assay, and prazosin was used as a positive control for the BCRP assay. Exatecan was used as a control, known not to be an MDR1 substrate. Residual DMSO content from compounds stock solutions was below 1% (v/v). The assay was performed in duplicate. The quantification of test compounds in donor or receptor compartment is conducted using relative LC/MS peak areas (samples of initial incubation solutions are used as a single point calibrator), without any spiked standard samples. The data is used for estimating apparent permeability (Papp) and calculation of efflux ratio.
# [3] = tested on: NCI-N87; test: In vitro cytotoxicity assay (MTT); type: cell-based, human; conditions: Homo sapiens, 6 days incubation
# Method: (§2) In vitro cytotoxicity of compounds of the disclosure was assessed on several cancerous human cell lines. Cells were plated in 96-well plates at an appropriate density depending on the cell line (between 1000 and 10 000 cells/well in 100µL of appropriate culture media) and incubated at 37°C for 24 hours. Serial dilutions of the tested compound previously dissolved in culture media (50µL) were added, and incubation was carried at 37°C out for 6 days. MTT (5mg/mL in PBS, 20µL, Sigma-Aldrich) was added into the wells, and incubation was continued for 1 to 4 hours at 37°C. Culture media was then carefully removed, and well content was homogeneously dissolved with acidified isopropanol. Absorbance values were measured on a microplate reader using a wavelength of 570 nm (with a reference wavelength of 690 nm). The IC50 concentration values compared to untreated control cells were determined using inhibition dose response curve fitting (GraphPad Prism 9). Exatecan mesylate (cat#HY-13631A) and CR8 (CAS# 294646-77-8; cat#HY-18340) were purchased from MedChemExpress (China).
# [4] = tested on: SKBR-3; test: In vitro cytotoxicity assay (MTT); type: cell-based, human; conditions: Homo sapiens, SK-BR-3, 144 h, 6 days incubation
# Method: as §2
# [5] = tested on: MDA-MB-231; test: In vitro cytotoxicity assay (MTT); type: cell-based, human; conditions: Homo sapiens, 6 days incubation
# Method: as §2
# [6] = tested on: BT-474; test: In vitro cytotoxicity assay (MTT); type: cell-based, human; conditions: Homo sapiens, BT-474, 144 h
# Method: as §2
# [7] = tested on: MDA-MB-453; test: In vitro cytotoxicity assay (MTT); type: cell-based, human; conditions: Homo sapiens, 6 days incubation
# Method: as §2
# [8] = tested on: JIMT-1; test: In vitro cytotoxicity assay (MTT); type: cell-based, human; conditions: Homo sapiens, 144 h, 6 days incubation
# Method: as §2
# [9] = target: T2, BCRP (Homo sapiens, UniProt Q9UNQ0); test: BCRP efflux substrate assay in MDCK-BCRP; type: in vitro ADME; conditions: for efflux ratio at 60 min, 5 µM / Papp A→B at 60 min, 5 µM / Papp B→A at 60 min, 5 µM: dog, pH 7.4, MDCK-BCRP; for efflux ratio at 60 min, 5 µM: read-out: Efflux ratio B/A; for Papp A→B at 60 min, 5 µM: read-out: Papp A (donor) to B (acceptor); for Papp B→A at 60 min, 5 µM: read-out: Papp B (acceptor) to A (donor); for BCRP efflux potential: in words
# T2 construct: host or cells: MDCK-BCRP (Preadyport)
# T2 sequence (Q9UNQ0 1-655): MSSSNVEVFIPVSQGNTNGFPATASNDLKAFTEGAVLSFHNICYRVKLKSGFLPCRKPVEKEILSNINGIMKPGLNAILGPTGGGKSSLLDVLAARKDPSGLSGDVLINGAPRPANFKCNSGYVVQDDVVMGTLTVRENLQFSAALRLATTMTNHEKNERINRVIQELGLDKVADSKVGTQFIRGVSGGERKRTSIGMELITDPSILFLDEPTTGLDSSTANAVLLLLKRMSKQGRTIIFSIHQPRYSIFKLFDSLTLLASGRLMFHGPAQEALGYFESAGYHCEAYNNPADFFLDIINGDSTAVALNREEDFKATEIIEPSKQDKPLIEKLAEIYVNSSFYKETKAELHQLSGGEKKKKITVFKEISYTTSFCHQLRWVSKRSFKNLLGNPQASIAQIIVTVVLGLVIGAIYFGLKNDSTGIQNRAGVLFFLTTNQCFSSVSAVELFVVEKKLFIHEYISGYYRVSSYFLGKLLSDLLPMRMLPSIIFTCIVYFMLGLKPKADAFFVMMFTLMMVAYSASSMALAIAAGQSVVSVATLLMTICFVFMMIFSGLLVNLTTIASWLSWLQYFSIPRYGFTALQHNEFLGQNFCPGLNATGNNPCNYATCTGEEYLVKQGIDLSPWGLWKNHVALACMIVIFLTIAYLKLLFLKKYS
# Method: as §1
# [10] = tested on: KB-1; test: In vitro cytotoxicity assay (MTT); type: cell-based; conditions: Homo sapiens, KB16, 144 h, 6 days incubation
# Method: as §2
# [11] = tested on: MCF-7; test: In vitro cytotoxicity assay (MTT); type: cell-based; conditions: Homo sapiens, MCF7, 144 h, 6 days incubation
# Method: as §2
# [12] = tested on: BXPC3; test: In vitro cytotoxicity assay (MTT); type: cell-based; conditions: Homo sapiens, BXPC-3, 144 h, 6 days incubation
# Method: as §2
# [13] = tested on: HT-29; test: In vitro cytotoxicity assay (MTT); type: cell-based; conditions: Homo sapiens, 144 h, 6 days incubation
# Method: as §2
# T1 sequence (P08183 whole entry): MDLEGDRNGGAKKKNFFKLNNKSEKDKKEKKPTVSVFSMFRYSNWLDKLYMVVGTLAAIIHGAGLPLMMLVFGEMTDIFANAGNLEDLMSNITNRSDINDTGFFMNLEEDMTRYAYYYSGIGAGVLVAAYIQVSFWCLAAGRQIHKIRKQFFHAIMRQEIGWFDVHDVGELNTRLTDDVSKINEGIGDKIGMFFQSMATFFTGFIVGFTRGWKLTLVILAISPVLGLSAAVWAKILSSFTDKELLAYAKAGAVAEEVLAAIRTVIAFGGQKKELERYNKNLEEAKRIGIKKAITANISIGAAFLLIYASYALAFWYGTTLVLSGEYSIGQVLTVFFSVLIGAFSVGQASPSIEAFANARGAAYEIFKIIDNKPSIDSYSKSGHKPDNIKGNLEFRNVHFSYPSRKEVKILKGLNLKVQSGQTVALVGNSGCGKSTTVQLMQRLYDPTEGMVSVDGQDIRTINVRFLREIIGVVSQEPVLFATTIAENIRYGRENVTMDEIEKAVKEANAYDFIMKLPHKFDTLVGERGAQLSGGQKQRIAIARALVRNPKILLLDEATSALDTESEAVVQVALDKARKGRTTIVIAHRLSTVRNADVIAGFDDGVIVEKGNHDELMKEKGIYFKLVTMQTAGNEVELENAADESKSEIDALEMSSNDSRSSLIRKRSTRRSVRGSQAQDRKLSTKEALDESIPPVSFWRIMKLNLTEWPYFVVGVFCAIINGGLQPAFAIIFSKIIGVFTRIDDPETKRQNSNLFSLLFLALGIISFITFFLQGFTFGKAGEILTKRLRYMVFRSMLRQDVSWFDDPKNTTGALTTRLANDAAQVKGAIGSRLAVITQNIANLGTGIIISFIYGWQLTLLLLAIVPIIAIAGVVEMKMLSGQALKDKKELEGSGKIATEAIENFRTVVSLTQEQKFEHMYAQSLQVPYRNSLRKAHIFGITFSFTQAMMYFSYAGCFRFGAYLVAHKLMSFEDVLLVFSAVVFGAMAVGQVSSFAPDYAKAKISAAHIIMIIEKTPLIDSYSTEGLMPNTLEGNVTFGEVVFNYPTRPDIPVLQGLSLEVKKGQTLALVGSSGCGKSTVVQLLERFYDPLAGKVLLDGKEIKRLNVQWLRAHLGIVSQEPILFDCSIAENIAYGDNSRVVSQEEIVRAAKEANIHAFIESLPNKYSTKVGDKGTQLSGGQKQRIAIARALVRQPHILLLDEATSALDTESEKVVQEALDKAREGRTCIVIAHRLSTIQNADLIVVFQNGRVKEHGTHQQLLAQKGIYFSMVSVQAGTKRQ
Compound,"Papp at 5 h, 50 µM [1] [×10⁻⁶ cm/s]","Papp A→B at 60 min, 5 µM [2] [×10⁻⁶ cm/s]","Papp B→A at 60 min, 5 µM [2] [×10⁻⁶ cm/s]","pIC50 ([3]; NCI-N87, 144 h)",pIC50 [4],"pIC50 ([5]; MDA-MB-231, 144 h)","pIC50 ([6]; BT-474, 6 days incubation, MTT)","pIC50 ([7]; MDA-MB-453, 144 h)",pIC50 [8],"efflux ratio at 60 min, 5 µM [9]","Papp A→B at 60 min, 5 µM [9] [×10⁻⁶ cm/s]","Papp B→A at 60 min, 5 µM [9] [×10⁻⁶ cm/s]",pIC50 [10],pIC50 [11],pIC50 [12],pIC50 [13],"efflux ratio at 60 min, 5 µM [2]",further results
NCC1CCN(c2nc(NCc3ccc(-c4ccccn4)cc3)n3ncc(Br)c3n2)CC1 [Compound 2560],135,< 0.7,26.6,8.48,8.36,8.72,8.23,8.79,9.22,4.94,7.53,37.2,,,,,,
N[C@H]1CC[C@@H](Nc2nc(NCc3ccc(-c4ccccn4)cc3)n3ncc(Br)c3n2)CC1 [Compound 2568],88,< 0.54,40.5,,8.36,,,,9.21,23.6,2.52,59.5,8.31,7.94,8.31,9.34,,pIC50 ([3]; 144 h): 8.65; pIC50 ([5]; 144 h): 9.01; pIC50 [6]: 8.76; pIC50 ([7]; 144 h): 8.78
Brc1cnn2c(NCc3ccc(-c4ccccn4)cc3)nc(NC[C@@H]3CCCN3)nc12 [Compound 2571],149,0.59,64.2,8.37,8.11,8.65,8.57,8.45,8.82,12.9,7.09,91.4,,7.10,8.27,8.95,108,
NCCCCNc1nc(NCc2ccc(-c3ccccn3)cc2)n2ncc(Br)c2n1 [Compound 2585],< 0.3,< 3.4,34,7.81,7.41,7.61,8.75,7.57,8.10,27.9,1.75,49,,,,,,
CN(CCN)c1nc(NCc2ccc(-c3ccccn3)cc2)n2ncc(Br)c2n1 [Compound 2600],90,2.05,59.3,8.88,8.77,9.54,8.93,8.93,9.72,2.1,22.4,47.1,8.83,7.91,8.94,9.55,28.9,MDR1 efflux potential [2]: low level; BCRP efflux potential [9]: low level
CNCCN(C)c1nc(NCc2ccc(-c3ccccn3)cc2)n2ncc(Br)c2n1 [Compound 2605],112,4.05,54.5,8.35,8.13,8.81,8.56,8.44,8.91,1.31,30.9,40.5,,8.43,8.54,9.48,13.4,MDR1 efflux potential [2]: low level; BCRP efflux potential [9]: low level
NC[C@H]1CC[C@H](Nc2nc(NCc3ccc(-c4ccccn4)cc3)n3ncc(Br)c3n2)CC1 [Compound 2636],67,< 12.9,30.8,8.61,9.77,8.84,8.43,8.71,9.92,6.21,3,18.6,8.09,7.48,8.33,8.89,,
N[C@H]1CCN(c2nc(NCc3ccc(-c4ccccn4)cc3)n3ncc(Br)c3n2)C1 [Compound 2655],125,5.13,26.9,8.71,9.85,9.27,8.80,9.01,,3.47,11.1,38.7,8.78,,,,5.25,MDR1 efflux potential [2]: low level; BCRP efflux potential [9]: low level
N[C@H]1CCC[C@@H]1Nc1nc(NCc2ccc(-c3ccccn3)cc2)n2ncc(Br)c2n1 [Compound 2668],164,1.36,56.4,9.08,9.70,9.09,8.67,8.75,,6.99,10.2,71,8.52,,,,41.6,
N[C@H]1CCC[C@@H](Nc2nc(NCc3ccc(-c4ccccn4)cc3)n3ncc(Br)c3n2)C1 [Compound 2670],132,< 0.5,23.5,8.60,9.14,8.57,8.24,8.04,,5.93,5.02,29.8,,,,,,
N[C@H]1CCCC[C@@H]1Nc1nc(NCc2ccc(-c3ccccn3)cc2)n2ncc(Br)c2n1 [Compound 2671],176,0.99,43.2,8.83,9.38,8.76,8.48,8.65,,4.54,10.1,46,8.12,,,,43.7,
"CC[C@@]1(O)C(=O)OCc2c1cc1n(c2=O)Cc2c-1nc1cc(F)c(C)c3c1c2[C@@H](N)CC3 [Exatecan, reference compound]",58,2.28,16.7,,,,,,,12.3,1.43,17.6,,,,,7.31,
